Measurements as given in patent US20170095440A1, “METHOD OF TREATING CANINE PANCREATITIS” (CK9, LLC, priority 2014, published 2017).
Where “and” joins values, the source holds several entries; their conditions need not be identical. Equal entries are not always repeated. Entries after “also recorded” stand apart in the source; their conditions may differ.

Tests used:
Beagle dogs = experiment: Multiple-dose tolerance study, oral capsule 3 times a day for 14 days; format: in vivo, dog
Description: The following parameters and end points were evaluated in the multiple-dose phase of this study: clinical signs, body weights, body weight changes, food consumption, electrocardiography, clinical pathology parameters (hematology, clinical chemistry, and urinalysis), and gross necropsy findings.
3 male and 3 female Beagle dogs were received from Marshall BioResources, North Rose, N.Y. The animals were examined and weighed on the day following receipt. The rising-dose phase animals were 6 months old and weighed 7.5 kg and 8.3 kg at initiation of dosing. The multiple-dose phase animals were 7 months old and weighed 7.4 kg and 7.6 kg at initiation of dosing.
For the multiple-dose phase, the test article was administered to the appropriate animals 3 times a day in an oral capsule from Days 1 to 14. The doses were administered 8 hours±30 minutes apart. The dose amount for each animal was based on the most recent body weight measurement. The first day of dosing was designated as Day 1.
Cage side observations were performed once daily, beginning during Week −1 and throughout the dosing period. During the dosing period, these observations were performed 1 to 3 hours post the first daily dose. The animals were removed from the cage and a detailed clinical observation was performed weekly, beginning during Week −1. Each animal was weighed on the day of randomization and Days 1, 4, 8, 11, and 15. A fasted weight was recorded on the day of necropsy. Food consumption was quantitatively measured for each animal daily, starting Week −1, throughout the dosing period, except for on the day of scheduled euthanasia.
Electrocardiogram (ECG) measurements were obtained from all animals using leads I, II, III, aVR, aVL, and aVF and a chart speed of 50 mm/second. The ECG measurements were obtained once on Day −1 (pretreatment) and Day 14 (approximately 3 hours post the first daily dose). Only lead II was evaluated by a board-certified veterinary cardiologist.
Blood was collected by venipuncture of the jugular vein. Urine was collected overnight by cage pan drainage. After collection, samples were transferred to the clinical pathology laboratory for processing. The animals were fasted overnight prior to scheduled clinical pathology sample collections, but had access to water ad libitum. Samples were collected according to Table 10.
Multiple-dose phase animals surviving until scheduled euthanasia were weighed, samples for evaluation of clinical pathology parameters were collected as specified above, and the animals were euthanized by sodium pentobarbital injection, followed by exsanguination. Animals were fasted (overnight) before their scheduled necropsy.
(§1) Multiple-dose phase animals were subjected to a complete necropsy examination, which included evaluation of the carcass and musculoskeletal system; all external surfaces and orifices; cranial cavity and external surfaces of the brain; and thoracic, abdominal, and pelvic cavities with their associated organs and tissues. Necropsy examinations were conducted under the supervision of a board-certified veterinary pathologist.

Han Wistar rats = experiment: Multiple-dose tolerance study, oral gavage 3 times a day for 7 days; format: in vivo, rat
Description: The following parameters and end points were evaluated in the multiple-dose phase of this study: clinical signs, body weights, body weight changes, food consumption, and gross necropsy findings.
A total of 18 male and 24 female Han Wistar rats were received from Charles River Laboratories, Raleigh, N.C. The animals were examined and weighed on the day following receipt. The rising-dose phase animals were 8 weeks old and weighed between 176 g and 255 g at initiation of dosing and the multiple-dose phase animals were 8 weeks old and weighed between 172 g and 259 g at initiation of dosing.
For the multiple-dose study, the test and control articles were administered to the appropriate animals 3 times a day by oral gavage from Days 1 to 7. The doses were administered 8 hours±30 minutes apart. The dose volume for each animal was based on the most recent body weight measurement. The doses were given using a syringe with attached gavage cannula. The first day of dosing was designated as Study Day 1.
Cage side observations were performed once daily, beginning during Week −1 and throughout the dosing phase. During the dosing period, these observations were performed 1 to 3 hours post the first daily dose.
The animals were removed from the cage and a detailed clinical observation was performed on the day of randomization and Days 1 and 8. Each animal was weighed on the day of randomization (Day −4) and Days 1 to 8. Food consumption was quantitatively measured for each animal weekly, starting Day −4, throughout the dosing phase.
as §1, with “study” for “phase”
For the multiple-dose study, numerical data collected on scheduled occasions for the listed variables were analyzed as indicated according to sex and occasion. Descriptive statistics number, mean and standard deviation (or % CV or SE when deemed appropriate) were reported whenever possible. Inferential statistics were performed according to the matrix below when possible, but excluded semi-quantitative data, and any group with less than 3 observations.
Levene's test was used to assess the homogeneity of group variances parametric assumption at the 5% significance level. Datasets with at least 3 groups were compared using an overall one-way ANOVA F-test or Kruskal-Wallis test (if parametric assumptions were not met) at the 5% significance level. The above pairwise comparisons were conducted using a two-sided Dunnett's or Dunn's test, respectively, if the overall test was significant. Datasets with 2 groups were compared using a two-sided t-test or Wilcoxon Rank-Sum test, respectively. All significant pairwise comparisons were reported at the 0.1%, 1%, and 5% significance levels.

[1] = system: dogs with suspected chronic pancreatitis; experiment: Serum C-reactive protein before and after treatment, clinical trial; format: in vivo, dog; settings: 8 mg/kg q 8 hrs, n=17
TGF-β1 = settings: one published study, cited from earlier work
[2] = Day 15 vs pretest, 200 mg/kg/day, methanesulfonate, 200 mg/kg/day

Which Survival (Beagle dogs; 200 mg/kg/day (66.7 mg/kg/dose 3 times a day), 14 days, 1 male and 1 female, methanesulfonate) does the source give for `CN(C)C(=O)COC(=O)Cc1ccc(OC(=O)c2ccc(NC(=N)N)cc2)cc1` [Camostat Mesilate, N,N-dimethylcarbamoylmethyl-4-(4-guanidinobenzoyloxy)phenylacetate methanesulfonate] here?
Its Survival is “No animals died; also recorded: All animals survived to scheduled euthanasia”.

And the “Body weight, overall conclusion” value (Beagle dogs; 200 mg/kg/day, 14 days)?
The value was “body weight loss”.

What about the Food consumption (Beagle dogs; 200 mg/kg/day, 14 days) of the same compound?
Its Food consumption is “no notable changes”.

And the Gross necropsy findings (Beagle dogs; Day 15, 200 mg/kg/day)?
The Gross necropsy findings was “no gross necropsy findings”.

What about the Hematology parameters (Beagle dogs; [2]) of the same compound?
The Hematology parameters was “no toxicologically meaningful changes; also recorded: no notable changes”.

And the Urinalysis parameters (Beagle dogs; [2])?
Its Urinalysis parameters is “no toxicologically meaningful changes; also recorded: no notable changes”.

What about the “High-dose level chosen from the tolerance study” value (Beagle dogs; dogs, oral, 3 times per day) of the same compound?
The value was 200 mg/kg/day.

What about the “Body weight change Days 1 to 15” value (Beagle dogs; female, 200 mg/kg/day, 14 days) of the same compound?
The value was −2.7%.

What about the Clinical observations (Beagle dogs; female, 200 mg/kg/day, 14 days) of the same compound?
The Clinical observations was “clear ocular discharge and single occurrences of vomitus and mucoid feces”.

And the “Clinical chemistry, potential test article-related changes” value (Beagle dogs; male and female, Day 15, 200 mg/kg/day, methanesulfonate, 200 mg/kg/day)?
Its value is “increased creatinine and γ-glutamyl transferase; also recorded: increases in creatinine and γ-glutamyl transferase”.

And the “Body weight change Days 1 to 15” value (Beagle dogs; male, 200 mg/kg/day, 14 days)?
The value was −9.2%.

What about the Clinical observations (Beagle dogs; male, 200 mg/kg/day, 14 days) of the same compound?
Its Clinical observations is “thin appearance and a single occurrence of vomitus”.

And the Clinical observations (Han Wistar rats; 1300 mg/kg/day, Day 8, methanesulfonate)?
Its Clinical observations is “Most of the 1300 mg/kg/day animals were noted to be thin and 3/3 males and 2/3 females were noted to be thin”.

And the “Necropsy observation not considered test article related” value (Han Wistar rats; 1300 mg/kg/day, male)?
The value was “small seminal vesicle was noted in one 1300 mg/kg/day male”.

And the “Overall conclusion of multiple dosing” value (Han Wistar rats; 3 times per day for 7 days)?
The value was “body weight loss and decreased food consumption”.

And the Gross necropsy findings (Han Wistar rats; 100, 550, 1300 mg/kg/day)?
Its Gross necropsy findings is “no toxicologically meaningful gross necropsy findings”.

What about the Survival (Han Wistar rats; 100, 550, 1300 mg/kg/day, 3 times a day, 7 days, euthanasia Day 8, methanesulfonate) of the same compound?
The Survival was “All animals survived to scheduled euthanasia; also recorded: No animals died”.

And the “Mean body weights compared to controls” value (Han Wistar rats; 100 or 550 mg/kg/day)?
Its value is “no statistically significant or toxicologically meaningful differences”.

What about the Clinical observations (Han Wistar rats; 100 or 550 mg/kg/day, 7 days) of the same compound?
The Clinical observations was “no clinical observations noted”.

What about the “Mean body weight, deviation from controls” value (Han Wistar rats; 100 or 550 mg/kg/day, Day 8) of the same compound?
The value was ≤ 4.4%.

And the “Mean food consumption, statistical comparison with controls” value (Han Wistar rats; Days 1 to 7, all dose groups)?
Its value is “no statistically significant differences”.

And the “Mean body weight lower than controls” value (Han Wistar rats; females, Day 8, 1300 mg/kg/day, statistically decreased Days 5 to 8)?
The value was 19%.

What about the “Body weight change Days 1 to 8” value (Han Wistar rats; females, 1300 mg/kg/day) of the same compound?
The value was −13%.

And the “Mean body weight lower than controls” value (Han Wistar rats; males, Day 8, 1300 mg/kg/day, statistically decreased Days 4 to 8)?
Its value is 25%.

And the “Body weight change Days 1 to 8” value (Han Wistar rats; males, 1300 mg/kg/day)?
Its value is −15%.

And the “High-dose level chosen from the tolerance study” value (Han Wistar rats; rats, oral, 3 times per day)?
Its value is 1300 mg/kg/day.

What about the “Change in serum C-reactive protein, pre- vs post-treatment” value ([1]; methanesulfonate) of the same compound?
The value was “no significant difference; also recorded: did not change significantly”.

What about the “Serum C-reactive protein concentration post-treatment (median)” value ([1]; pre-treatment median 0.1, post range 0.1-6.8, p=0.25) of the same compound?
The value was 0.1 mg/L.

And the “Hepatic stellate cell activation and hepatic fibrosis” value (TGF-β1)?
Its value is “attenuated hepatic stellate cell activation as well as hepatic fibrosis”.

And the “Systemic or local side effects” value (TGF-β1)?
Its value is “without entailing apparent systemic or local side effects”.

What about the TGF-β1 concentrations (TGF-β1; methanesulfonate) of the same compound?
Its TGF-β1 concentrations is “decreased TGF-β1 concentrations; also recorded: suppressed”.
